Patent US20230287316A1, “INTER-ORGAN PLATFORM WITH TISSUE-SPECIFIC NICHES FOR A MICROPHYSIOLOGICAL SYSTEM ON A CHIP” (THE TRUSTEES OF COLUMBIA UNIVERSITY IN THE CITY OF NEW YORK, priority 2020, published 2023)
Where a name gives a salt, the structure may show the parent alone.

Key:
[1] = system: human engineered cardiac tissue; test: Validation of engineered cardiac tissue with drugs of known cardiac effects: beat frequency; assay type: cell-based
Description: Levels were normalized first to β actin and subsequently to the tissue engineered bone control (mean ± s.d., n = 3). […] All scale bars: 100 µm.
The cardiac tissue model was generated from iPS-derived cardiomyocytes and fibroblasts encapsulated in fibrin hydrogel, as in our previous studies. The tissue was formed between two elastic pillars causing cell elongation and alignment, and subjected to electrical stimulation to synchronously contract and work against the pillars.
Specifically, linsitinib was dissolved at a 10 mM concentration in DMSO (Corning) and mixed in with the respective cell medium at a […] concentration unless otherwise noted. Vehicle treatments involved just the addition of DMSO at identical volumes as a control. Tissues were randomly assigned to experimental groups. Medium was changed every day.
To measure the cardiac contractility online, we took contractility videos of the tissues that were analyzed using the native MATLAB code we previously developed. Tissue contractility was measured by tracking the change in tissue area as a function of time. Acquired video frames were inverted and an automated intensity threshold was used to identify cell location in the video frame. First, a baseline time point in the video corresponding to a relaxed tissue state was selected. Absolute differences in cell area from the baseline frame were then calculated to create a time course of cell area changes over time. The resulting time courses were analyzed using a native MATLAB (MATHWorks) automated peak finding algorithm to determine locations of maximum cell contractions in the time profiles. Beat period lengths were determined from the length of time between the pairs of local maxima, and the beat frequencies were determined by inverting beat periods. The rate of proarrhythmic events was calculated by the ratio of the number of proarrhythmic events over the total number of beats.

cardiac muscle = test: Drug distribution with functional matching in InterOrgan platform: cardiac beat frequency; assay type: cell-based, human; conditions: 10 µM introduced into the reservoir at t = 0; assessed at 24 and 72 hours
[2] = system: all tissues in the InterOrgan platform; test: Doxorubicin-induced toxicity in InterOrgan platform: viability and metabolism of all tissues; assay type: cell-based, human; conditions: 30 µM Dox, 72 hours after exposure
Description: After the acute dose, each engineered tissue was assessed for cell viability, glucose consumption, and mitochondrial activity 72 hours after exposure (FIGS. 13D-F). Functional features for each engineered tissue 72 hours after acute exposure (n=3-5) are shown in FIGS. 13G-J. Over a thousand miRNAs from control and Dox-exposed cardiac tissues were differentially expressed under Isolated and InterOrgan conditions (FIG. 13K).
Treatment with 30 µM Dox, corresponding to the clinically administered cumulative dosage shown to induce cardiotoxicty, was delivered to tissues in the InterOrgan platform through the vascular channel and compared against the Isolated condition (FIG. 13A). […] We also detected decreased cardiac contractility and increased troponin release, both clinical measures of cardiac cell damage (FIG. 13G).
Metabolic Assays: Glucose, lactate, glutamate and glutamine were measured in parallel using the bioluminescent Glucose-Glo™ (Promega, cat. no. J6021), Lactate-Glo™ (Promega, cat. No. J5021), Glutamine/Glutamate-Glo™ (Promega, cat. no. J8021) and Glutamate-Glo™ (Promega, cat. no. J7021) assays according to the manufacturer’s protocols.

Bone tissues = test: Doxorubicin-induced toxicity: bone function assays; assay type: cell-based, human; conditions: 30 µM Dox, 72 hours
Description: Bone function assays: To assess the bone’s ability to remodel its matrix, supernatant samples were analyzed for […], (TRAP, Kamiya Biomedical Company, KT-008) and bone sialoprotein (Human Bone Sialoprotein ELISA Kit, Mybiosource, cat. no. MBS261861) after 28 days of culture. These assays were performed according to the manufacturer’s instructions.

skin tissues = test: Doxorubicin-induced toxicity: skin functional assays; assay type: cell-based, human; conditions: 30 µM Dox, 72 hours; both Isolated and InterOrgan cultures
Description: Skin functional assays: For drug-induced toxicity studies, electrical current was run through the tissues by placing electrodes on either side of the skin tissue and the change in resistance was subsequently measured and read as a function of the barrier. All tissues were analyzed using the same electrode holder setup to standardize the positions of electrodes with respect to the tissue. To analyze the transport of molecules through the skin barrier, Fluorescein (FITC, ThermoFisher, D3306) powder was added to the epidermis of skin tissues. After 3 hrs, 100 µl of supernatant from the dermal region below the skin tissue was sampled and assayed on a plate reader (BioTex Synergy HTX).

[3] = system: engineered cardiac tissues; test: Doxorubicin-induced toxicity: heart function assays; assay type: cell-based, human; conditions: 30 µM Dox, 72 hours
Description: Heart function assays: Cardiac excitability, force, and beat rate were obtained using our previously established protocols. Cardiac troponin secretion was determined using the Human Cardiac Troponin I ELISA Kit (Abcam, ab200016) according to the manufacturer’s instructions.

Liver tissues = test: Doxorubicin-induced toxicity: liver function assays; assay type: cell-based, human; conditions: 30 µM Dox, 72 hours
Description: Liver function assays: To assess liver function, […] and urea secretion using a Human ELISA kit (Bethyl, E88-129) and a Urea Nitrogen Test Kit (Fisher Scientific, SB-0580-250), respectively. Comparing these samples to the provided standard, concentrations of albumin and urea were calculated and compared to the secretion for each tissue at Day 0. Assays were performed according to the manufacturer’s instructions.

[4] = FITC circulation in the platform (absorption and diffusive transport); assay type: physicochemical
Description: We also circulated fluorescent FITC, which has similar chemical properties as linsitinib including hydrophobicity and molecular weight, and measured its distribution across the 2 tissue chambers in the platform (FIG. 26F). The simulated and empirical results agreed: FITC also reached uniform concentration in all areas of the platform in within 12 hours, after reaching equilibrium across both models at approximately 6 hours. This is significant, since linsitinib is known to have a short half-life of approximately 5 hours. The delayed drug distribution by diffusion through tissues observed here has been documented as an issue for treating solid tumors in patients, with chemotherapeutic concentrations decreasing exponentially with distance from tumor blood vessels and often being limited to the peripheries of tumors even 12 hours after injection.
Fluorescein isothiocyanate (FITC, 10 mM in DMSO; Sigma Aldrich) was circulated for the integrated platform to determine potential hydrophobic small molecule absorption, given its physical and chemical properties. FITC was added at a concentration of 10 µM to 8 mL of 1:1 bone tumor/cardiac mixed media and introduced into the platform. The control was the FITC-containing media in a standard 24-multiwell plate (Corning). Aliquots from the reservoir, bone tumor, and cardiac tissue chambers were taken at 12, 24, 48 and 72 hours and measured for fluorescent signal using a spectrophotometer (Biotek).
Measurements of FITC concentrations were used to estimate the spread of linsitinib within the platform via diffusive circulating transport. Four independent platforms were filled with 8 mL of 1:1 mixed media each, after which 10 µM of FITC was injected into the reservoir. The platforms were connected to the peristaltic pumps run at 100 rpm to generate physiologically relevant fluid flow rate and shear stress. Aliquots were taken from the reservoir, bone and cardiac chambers at 0, 2, 4, 6, and 12 hours post injection, and assayed for fluorescence signal on a spectrophotometer (Biotek).

endothelial barrier = test: Endothelial barrier permeability response to thrombin; assay type: cell-based, human; conditions: endothelialized mesh inserts under flow shear
Description: Vascularization The generation of a patient-specific vascular barrier is critical for functionally connecting tissue compartments while maintaining each tissues, as well as vascular perfusion, under optimal culture conditions resulting in phenotypic stability and maturation, analogous to the separation of interstitial and intravascular compartments in vivo. Transwell mesh inserts in each tissue chamber were coated with fibronectin and seeded with ECs and supporting MSCs with 2:1 ratio (FIG. 36). A stable endothelial barrier was then established by exposure to flow shear (ramped up from 1 to 5 dyn/cm^2 over 5 days of culture). To physiologically integrate engineered tumors and host tissues by vascular flow, the endothelialized membrane needs to separate the interstitial and intravascular spaces, enabling vasculature-mediated tissues crosstalk. […] Such response to an inflammatory agent is critical for metastatic extravasation of cancer cells. The endothelial barrier allowed optimization of culture conditions for each tissue - akin to compartmentalization in the body that avoids the use of “common” media. This approach promoted long term culture (4-12 weeks) of matured tissues, with on-line readouts (cell tracking, viability, function) in longitudinal and dynamic studies. […]

[5] = isoproterenol dose-response study
[6] = 10 µM injected into the reservoir

In the case of CCCCc1oc2ccccc2c1C(=O)c1cc(I)c(OCCN(CC)CC)c(I)c1 [Amiodarone, amiodarone hydrochloride], the beat frequency ([1]; amiodarone 2.418 µM over 48 hours) is reported as “expected decreases in the beat frequency”.
For Cn1c(=O)c2c(ncn2C)n(C)c1=O [caffeine], the beat frequency ([1]; caffeine 50 mM) was “physiologic increases in beat frequency”.
With CN(CCOc1ccc(NS(C)(=O)=O)cc1)CCc1ccc(NS(C)(=O)=O)cc1 [dofetilide] the “beat rate of cardiac muscle” value (cardiac muscle) was “decreased”.
For COc1cccc2c1C(=O)c1c(O)c3c(c(O)c1C2=O)C[C@@](O)(C(=O)CO)C[C@@H]3O[C@H]1C[C@H](N)[C@H](O)[C@H](C)O1 [doxorubicin], the beat frequency ([1]; doxorubicin 1 µM over 72 hours) was “initially increased, and then decreased following prolonged exposure to the drug”, the Cell viability [2] was “significantly decreased” and the glucose consumption [2] was “significantly decreased”. The mitochondrial activity [2] was “significantly decreased”, the TRAP responses (Bone tissues) was “stable” and the cellularity (Bone tissues) was “decreased”. For the same molecule, the diffusional permeability (skin tissues) was “increased”, the electrical resistance (skin tissues) was “decreased” and the cardiac contractility [3] was “decreased”. For the same molecule, the troponin release [3] was “increased”, the albumin (Liver tissues) was “decreased” and the urea production (Liver tissues) was “unaffected”.
With CNC[C@H](O)c1ccc(O)c(O)c1 [epinephrine] the “beat rate of cardiac muscle” value (cardiac muscle) was “increased”.
With CC(C)NCC(O)c1ccc(O)c(O)c1 (stereo not shown) [isoproterenol, isoproterenol hydrochloride] the “EC50 (beat frequency)” value [1, 5] was “expected values of EC50” and the beat frequency [1, 5] was “increased”.
With Fluorescein isothiocyanate [FITC] the “absorption by the platform” value ([4]; 10 µM circulated for 72 hours, polysulfone platform compared to multi-well plates) was “without any measurable absorption by the platform”, the “time to equilibrium across both models” value [4, 6] was “approximately 6 hours” and the “time to uniform concentration in all areas of the platform” value [4, 6] was no more than 12 h.
With thrombin the barrier permeability (endothelial barrier) was “physiologic increase in barrier permeability”.
